Assays:
[1] = system: HCV replicon (Clone A cells, Huh7, subgenomic hepatits C virus RNA); assay: HCV Neo screening assay (HCV replicon, NPTII ELISA); format: cell-based, hepatitis C virus; details: for EC50 / inhibition at 25 µM: Hepatitis C virus, Huh-7; for EC50: Secondary Data, HCV; for inhibition at 25 µM: primary screening, 25 μM final concentration, 24 hours, percent inhibition of viral replication, read-out: HCV Inh; for HCV TI: therapeutic index CC50/EC50, HCV
RSV minigenome = assay: RSV minigenome-dependent β-galactosidase expression assay (RSV β-Gal); format: cell-based, respiratory syncytial virus; details: for EC50 / inhibition at 25 µM: human respiratory syncytial virus; for EC50: Secondary Data, RSV, read-out: RSV EC50; for inhibition at 25 µM: primary screening, 25 μM final concentration, 24 hours, percent inhibition of viral replication, read-out: RSV Inh; for RSV TI: therapeutic index CC50/EC50, RSV
WNV (WN-hRuPac cells) = assay: WNV antiviral activity, WN-hRuPac cells, Renilla luciferase; format: cell-based, West Nile virus; details: for EC50 / inhibition at 25 µM: West Nile virus; for EC50: Secondary Data, WNV, read-out: WNV EC50; for inhibition at 25 µM: primary screening, 25 μM final concentration, 24 hours, percent inhibition of viral replication, read-out: WNV Inh; for WNV TI: therapeutic index CC50/EC50, WNV
YFV (YF-hRuPac cells) = assay: microbe, parasite or virus in culture; format: cell-based, yellow fever virus; details: for inhibition at 25 µM / EC50: Yellow fever virus; for inhibition at 25 µM: 24 h, read-out: YFV Inh; for EC50: read-out: YFV EC50
DNG (D2-hRuPac cells) = assay: DNG antiviral activity, D2-hRuPac cells, Renilla luciferase; format: cell-based, Dengue fever virus; details: Dengue virus, secondary screening
EBOV minigenome = assay: microbe, parasite or virus in culture; format: cell-based, Ebola virus; details: Zaire ebolavirus; for inhibition at 25 µM: 24 h, read-out: EBOV Inh; for EC50: read-out: EBOV EC50
SINV (SR19-F-luc cells) = assay: SINV antiviral activity, SR19-F-luc cells, Firefly luciferase; format: cell-based; details: Sindbis virus; for inhibition at 25 µM: primary screening, 25 μM final concentration, 24 hours, percent inhibition of viral replication, read-out: SINV Inh; for EC50: secondary screening, SR19-F-luc cells

| SMILES | inhibition at 25 µM [1] | EC50 (RSV minigenome) | inhibition at 25 µM (RSV minigenome) | EC50 (WNV (WN-hRuPac cells)) | inhibition at 25 µM (WNV (WN-hRuPac cells)) | WNV TI (WNV (WN-hRuPac cells)) | YFV TI (YFV (YF-hRuPac cells)) | inhibition at 25 µM (YFV (YF-hRuPac cells)) | EC50 (YFV (YF-hRuPac cells)) | EC50 (DNG (D2-hRuPac cells)) | inhibition at 25 µM (EBOV minigenome) | EC50 (EBOV minigenome) | inhibition at 25 µM (SINV (SR19-F-luc cells)) | EC50 (SINV (SR19-F-luc cells)) | CC50 (in vitro; DNG CC50) | CC50 (in vitro; EBOV CC50) | CC50 (in vitro; RSV CC50) | CC50 (in vitro; SINV CC50) | CC50 (in vitro; WNV CC50) | CC50 (in vitro; YFV CC50) | further results |
| --- | --- | --- | --- | --- | --- | --- | --- | --- | --- | --- | --- | --- | --- | --- | --- | --- | --- | --- | --- | --- | --- |
| COC(=O)c1ccc(Nc2cc(C)nc3ccc(Cl)cc23)cc1 [Compound 60] | 71.3% | ≥ 75 µM | 38.1% | 14.6 µM | 68.3% | 5.14 | 2.17 | 79.4% | 34.6 µM | 15.2 µM | 57.4% | 75 µM | 45.8% | 12 µM | ≥ 75 µM | ≥ 75 µM | ≥ 75 µM | ≥ 75 µM | ≥ 75 µM | ≥ 75 µM | EC50 [1]: 1.4 µM; HCV TI [1]: 32.5; CC50 (in vitro; HCV CC50): 45.5 µM |
| COC(=O)c1ccc(Nc2cc(C)nc3c(C)cccc23)cc1 [Compound 61] | 80.1% | 32.1 µM | 58.7% | 22.3 µM | 96.9% | 2.06 | 4.54 | 97.7% | 10.1 µM | 14.1 µM | 40.9% | 70.6 µM | 37.5% | 17.3 µM | 45.9 µM | 45.9 µM | 45.9 µM | 45.9 µM | 45.9 µM | 45.9 µM | EC50 [1]: 0.75 µM; HCV TI [1]: 61.93; RSV TI (RSV minigenome): 1.43; CC50 (in vitro; HCV CC50): 46.5 µM |
| CCCOC(=O)c1ccc(Nc2cc(C)nc3ccc(C(=O)OCC)cc23)cc1 [Compound 63] | 57.2% | 72.2 µM | 56.4% | 44.1 µM | 55% | 1.59 | 1.35 | 54.2% | 51.8 µM | 44.8 µM | 92% | 9.03 µM | 53.3% | ≥ 75 µM | 70.1 µM | 70.1 µM | 70.1 µM | 70.1 µM | 70.1 µM | 70.1 µM | RSV TI (RSV minigenome): 0.97 |
| CCOC(=O)c1ccc2ncc(C(=O)OCC)c(NCCCOC(=O)C(Cl)(Cl)Cl)c2c1 [Compound 64] | 43.4% | 22 µM | 84.9% | 8.9 µM | 37.2% | 6.8 | 1.32 | 25.8% | 45.9 µM | 4.19 µM | 90.1% | 15.5 µM | 26.1% | 34.1 µM | 60.5 µM | 60.5 µM | 60.5 µM | 60.5 µM | 60.5 µM | 60.5 µM | RSV TI (RSV minigenome): 2.75 |
| Cc1cc(Nc2cccc(Cl)c2C)c2cccc(C)c2n1 [Compound 65] | 114% | 1.95 µM | 96.6% | 5.72 µM | 80.6% | 13.11 | – | 76.3% | ≥ 75 µM | ≥ 75 µM | 81.8% | 48.8 µM | 72.2% | ≥ 75 µM | ≥ 75 µM | ≥ 75 µM | ≥ 75 µM | ≥ 75 µM | ≥ 75 µM | ≥ 75 µM | EC50 [1]: 8.48 µM; HCV TI [1]: 1.53; RSV TI (RSV minigenome): 38.46; CC50 (in vitro; HCV CC50): 13 µM |
| CCOC(=O)c1cnc2ccc(F)cc2c1NCCCN(C)C [Compound 66] | 39.6% | 44.8 µM | 17.6% | 22.9 µM | 40.8% | 2.82 | 0.86 | 11.4% | ≥ 75 µM | 51.4 µM | 84.1% | 14.1 µM | 14.9% | 9.53 µM | 64.6 µM | 64.6 µM | 64.6 µM | 64.6 µM | 64.6 µM | 64.6 µM | RSV TI (RSV minigenome): 1.44 |
| CCOC(=O)c1cnc2c(OC)cccc2c1NCC(C)O (stereo not drawn) [Compound 69] | 19.8% | 2.21 µM | 98.3% | 13.7 µM | 44.6% | 2.53 | 1.35 | 70.1% | 25.7 µM | 44 µM | 64.4% | 57.6 µM | 60.9% | 37.1 µM | 34.6 µM | 34.6 µM | 34.6 µM | 34.6 µM | 34.6 µM | 34.6 µM | RSV TI (RSV minigenome): 15.67; CC50 (in vitro; HCV CC50): ≥ 75 µM |
| CCOC(=O)c1cnc2c(OC)cccc2c1NC(C)c1ccccc1 (stereo not drawn) [Compound 71] | 80.1% | 4.47 µM | 93.3% | 13.9 µM | 24.7% | 3.55 | 0.84 | 71.2% | 58.5 µM | 37.2 µM | 90.1% | 29.5 µM | 49.1% | 5.52 µM | 49.3 µM | 49.3 µM | 49.3 µM | 49.3 µM | 49.3 µM | 49.3 µM | EC50 [1]: 8.95 µM; HCV TI [1]: 4.42; RSV TI (RSV minigenome): 11.03; CC50 (in vitro; HCV CC50): 39.6 µM |
| CCOC(=O)c1cnc2c(C(F)(F)F)cccc2c1Nc1ccc(S(=O)(=O)Nc2nc(C)cc(C)n2)cc1 [Compound 72] | -24.8% | 41.7 µM | 50.3% | 13.3 µM | 83.2% | 5.64 | 3.59 | 90% | 20.9 µM | 12 µM | 86% | 17.3 µM | -4.36% | 37.1 µM | ≥ 75 µM | ≥ 75 µM | ≥ 75 µM | ≥ 75 µM | ≥ 75 µM | ≥ 75 µM | RSV TI (RSV minigenome): 1.8; CC50 (in vitro; HCV CC50): ≥ 75 µM |
| COC(=O)c1ccc2nc(C)cc(Nc3cccc(O)c3)c2c1 [Compound 73] | 89.5% | 28.9 µM | 63.1% | 25.8 µM | 31.5% | 2.8 | 1.79 | 51.8% | 40.3 µM | 16.8 µM | 62.1% | – | 80.8% | 5.99 µM | 72.3 µM | 72.3 µM | 72.3 µM | 72.3 µM | 72.3 µM | 72.3 µM | EC50 [1]: 2.32 µM; HCV TI [1]: 15.17; RSV TI (RSV minigenome): 2.5; CC50 (in vitro; HCV CC50): 35.2 µM |
| CCOC(=O)c1cnc2ccc(F)cc2c1Nc1ccc(S(=O)(=O)Nc2nc(C)cc(C)n2)cc1 [Compound 74] | 39.4% | ≥ 75 µM | 26.6% | 9.72 µM | 90.5% | 7.72 | 7.75 | 93.5% | 9.68 µM | 4.08 µM | 76.1% | – | 19.4% | ≥ 75 µM | ≥ 75 µM | ≥ 75 µM | ≥ 75 µM | ≥ 75 µM | ≥ 75 µM | ≥ 75 µM | – |
| CCOC(=O)c1cnc2c(C)cc(C)cc2c1NCCCN(C)C [Compound 75] | 122% | 5.79 µM | 92.7% | 9 µM | 79.2% | 2.6 | 3.13 | 69.1% | 7.48 µM | 6.09 µM | 95.1% | 7.15 µM | 83.8% | 11 µM | 23.4 µM | 23.4 µM | 23.4 µM | 23.4 µM | 23.4 µM | 23.4 µM | EC50 [1]: 0.75 µM; HCV TI [1]: 14.4; RSV TI (RSV minigenome): 4.04; CC50 (in vitro; HCV CC50): 10.8 µM |

From patent US20090221624A1, “4-AMINOQUINOLINE COMPOUNDS FOR TREATING VIRUS-RELATED CONDITIONS” (priority 2005, published 2009)
